# Data: patent US20130131161A1, “METHODS AND COMPOSITIONS FOR CARDIOVASCULAR DISEASES AND CONDITIONS” (priority 2009, published 2013)
# Tested on: Human umbilical vein endothelial cells (HUVECs)
# Assay: eNOS activity analysis: NO, ONOO− and NO/ONOO− release from HUVECs of 50 genotyped donors in response to LA-419 (Example 2)
# Format: cell-based
# Conditions: for Net increase over control ONOO− (mean ± sd) / Peak release NO (mean ± sd) / Peak release NO/ONOO− (mean ± sd) / Peak release ONOO− (mean ± sd) / Net increase over control NO (mean ± sd) / Net increase over control NO/ONOO− (mean ± sd) / % Change Ratio, % Change NO/% Change ONOO− (mean ± sd): LA-419 1 μM; for % Change NO (mean ± sd) / % Change NO/ONOO− (mean ± sd) / % Change ONOO− (mean ± sd): LA-419 5 μM vs control
# Method: Concurrent measurements of NO and ONOO^− were carried out with tandem electrochemical nanosensors combined into one working unit with a total diameter of 200-500 nm (FIG. 1). Their design was based on previously developed and well-characterized chemically modified carbon-fiber technology (Malinski and Taha, 1992; Lvovich and Scheeline, 1997). Each of the nanosensors was made by depositing a sensing material on the tip of a carbon fiber (length 4-5 μm, diameter 0.2-0.5 μm). The fibers were sealed with nonconductive epoxy and electrically connected to copper wires with conductive silver epoxy. A conductive film of polymeric nickel (II) tetrakis(3-methoxy-4-hydroxyphenyl)porphyrin for the NO-sensor and polymeric film of Mn (III) [2.2]paracyclophanylporphyrin was used for the ONOO^−-sensor.
# A module of NO/ONOO^− nanosensors (diameter 1-2 μm) with a platinum wire (0.1 mm) counter electrode and saturated calomel reference electrode (SCE) were applied. Differential pulse voltammetry (DPV) and amperometry were performed with a computer-based Gamry VFP600 multichannel potentiostat. DPV was used to measure the basal NO and ONOO^− concentrations, and amperometry was used to measure changes in NO and ONOO^− concentrations from its basal level with time. The DPV current at the peak potential characteristic for NO oxidation (0.65 V) and ONOO^− reduction (−0.45 V) was directly proportional to the local concentrations of these compounds in the immediate vicinity of the sensor. Linear calibration curves (current vs. concentration) were constructed for each sensor from 10 nM to 3 μM before and after measurements with aliquots of NO and ONOO^− standard solutions, respectively. The detection limit of the sensors was 1.0 nM.
# The quantification of each analyte (concentration in nM) was performed using a maximum current from amperograms and standard calibration curves. A reproducibility of measurements with nanosensors is relatively high (between 5-12%). […] The sensors were slowly raised 5±2 μm from the surface of a single endothelial cell. The eNOS agonist, calcium ionophore A23187 (CaI) as well as the different drugs were then added to the surrounding media at the cell surface with a nanoinjector that was also positioned by a computer controlled-micromanipulator.
# This example describes the genotype-specific response of the three major eNOS variants to 1 μM and 5 μM concentrations of LA-419. The three major genetic polymorphisms studied were the Glu298Asp variant (E298D or 894G→T) in exon 7 of […], the −786T→C variant in the promoter region, and the intron 4 polymorphism (VNTR). All of these variants have possible effects on the cardiovascular system and endothelial dysfunction. For this study, human umbilical vein endothelial cells (HUVECs) from 50 donors between 18 and 32 years of age were used.
# For the analysis several analysis techniques were employed. First, the effect of genotype on NO and ONOO^− release was explored within the different concentrations of LA-419 (control, 1 μM, 5 μM), calculated as the average peak release (nmols/L) of NO, ONOO^−, and NO/ONOO^−. The effect of genotype on the net increase in NO, ONOO^−, and NO/ONOO^− for LA-419 (1 μM and 5 μM) as compared to control was also measured. In addition, an analysis was done on the effect of genotype on the % change in NO, ONOO^−, and NO/ONOO^− production for LA-419 (1 μM and 5 μM), calculated as:
# % Change=[(avg. LA-419−avg. control)/(avg. control)]*100
# Finally, an evaluation was undertaken concerning the effect of genotype on the production of NO, ONOO^−, and NO/ONOO^− as the fold difference of control for LA-419 (1 μM and 5 μM), calculated as:
# Fold Difference=(avg. LA-419)/(avg. control)
# Within each calculation technique the results were compared for statistical significance using a non-parametric ANOVA Kruskal-Wallace test or a non-parametric Mann-Whitney U test. Statistical significance was set at a p-value <0.05 in a two-tailed distribution. […]
# [1] = HUVECs Intron 4 variant b/a, a/a, c/c
# [2] = HUVECs T-786C variant T/C & C/C
# [3] = HUVEC donor Race Caucasian/Black
smiles,measurement,setting,value
"CC(=O)SC1COC2C(O[N+](=O)[O-])COC12 (stereo not drawn) [LA-419, S-(6-Nitro-oxi-hexahydro-furo[3,2-b]furan-3-1-il)thioacetate]",Net increase over control ONOO− (mean ± sd),HUVECs Intron 4 variant b/a,−37.57 (99.15) nmols/L
same,Peak release NO (mean ± sd),HUVECs Intron 4 variant b/a,377.23 (69.05) nmols/L
same,Peak release NO/ONOO− (mean ± sd),HUVECs Intron 4 variant b/a,1.25 (0.46)
same,Peak release ONOO− (mean ± sd),HUVECs Intron 4 variant b/a,330.47 (88.93) nmols/L
same,Net increase over control NO (mean ± sd),[1],27.83 (86.07) nmols/L
same,Net increase over control NO/ONOO− (mean ± sd),[1],0.16 (0.46)
same,Net increase over control ONOO− (mean ± sd),[1],−21.43 (98.29) nmols/L
same,Peak release NO (mean ± sd),[1],366.00 (71.50) nmols/L
same,Peak release NO/ONOO− (mean ± sd),[1],1.15 (0.48)
same,Peak release ONOO− (mean ± sd),[1],356.55 (98.40) nmols/L
same,Net increase over control NO (mean ± sd),HUVECs Intron 4 variant b/b,39.66 (70.27) nmols/L
same,Net increase over control NO/ONOO− (mean ± sd),HUVECs Intron 4 variant b/b,0.29 (0.47)
same,Net increase over control ONOO− (mean ± sd),HUVECs Intron 4 variant b/b,−51.71 (108.03) nmols/L
same,Peak release NO (mean ± sd),HUVECs Intron 4 variant b/b,393.18 (77.21) nmols/L
same,Peak release NO/ONOO− (mean ± sd),HUVECs Intron 4 variant b/b,1.33 (0.42)
same,Peak release ONOO− (mean ± sd),HUVECs Intron 4 variant b/b,317.60 (74.77) nmols/L
same,Net increase over control NO (mean ± sd),HUVECs Intron 4 variant c/c,−98.67 (0) nmols/L
same,Net increase over control NO/ONOO− (mean ± sd),HUVECs Intron 4 variant c/c,−0.23 (0)
same,Net increase over control ONOO− (mean ± sd),HUVECs Intron 4 variant c/c,−2.67 (0) nmols/L
same,Peak release NO (mean ± sd),HUVECs Intron 4 variant c/c,270.00 (0) nmols/L
same,Peak release NO/ONOO− (mean ± sd),HUVECs Intron 4 variant c/c,0.64 (0)
same,Peak release ONOO− (mean ± sd),HUVECs Intron 4 variant c/c,423.67 (0) nmols/L
same,"% Change Ratio, % Change NO/% Change ONOO− (mean ± sd)",HUVECs T-786C variant C/C,−0.80 (1.04)
same,Net increase over control NO (mean ± sd),HUVECs T-786C variant C/C,2.08 (39.61) nmols/L
same,Net increase over control NO/ONOO− (mean ± sd),HUVECs T-786C variant C/C,−0.48 (0.48)
same,Net increase over control ONOO− (mean ± sd),HUVECs T-786C variant C/C,25.25 (135.63) nmols/L
same,Peak release NO (mean ± sd),HUVECs T-786C variant C/C,334.25 (68.06) nmols/L
same,Peak release NO/ONOO− (mean ± sd),HUVECs T-786C variant C/C,0.88 (0.50)
same,Peak release ONOO− (mean ± sd),HUVECs T-786C variant C/C,430.17 (124.82) nmols/L
same,"% Change Ratio, % Change NO/% Change ONOO− (mean ± sd)",HUVECs T-786C variant T/C,−1.06 (0.82)
same,Net increase over control NO (mean ± sd),HUVECs T-786C variant T/C,46.77 (81.32) nmols/L
same,Net increase over control NO/ONOO− (mean ± sd),HUVECs T-786C variant T/C,−0.99 (0.94)
same,Net increase over control ONOO− (mean ± sd),HUVECs T-786C variant T/C,−61.09 (111.68) nmols/L
same,Peak release NO (mean ± sd),HUVECs T-786C variant T/C,396.32 (73.63) nmols/L
same,Peak release NO/ONOO− (mean ± sd),HUVECs T-786C variant T/C,1.35 (0.44)
same,Peak release ONOO− (mean ± sd),HUVECs T-786C variant T/C,315.74 (78.13) nmols/L
same,Net increase over control NO (mean ± sd),[2],40.15 (77.70) nmols/L
same,Net increase over control NO/ONOO− (mean ± sd),[2],−0.91 (0.90)
same,Net increase over control ONOO− (mean ± sd),[2],−48.30 (116.85) nmols/L
same,Peak release NO (mean ± sd),[2],387.12 (75.01) nmols/L
same,Peak release NO/ONOO− (mean ± sd),[2],1.28 (0.47)
same,Peak release ONOO− (mean ± sd),[2],332.69 (93.16) nmols/L
same,"% Change Ratio, % Change NO/% Change ONOO− (mean ± sd)",HUVECs T-786C variant T/T,1.06 (9.40)
same,Net increase over control NO (mean ± sd),HUVECs T-786C variant T/T,30.80 (64.85) nmols/L
same,Net increase over control NO/ONOO− (mean ± sd),HUVECs T-786C variant T/T,0.77 (8.26)
same,Net increase over control ONOO− (mean ± sd),HUVECs T-786C variant T/T,−27.14 (82.12) nmols/L
same,Peak release NO (mean ± sd),HUVECs T-786C variant T/T,380.73 (75.61) nmols/L
same,Peak release NO/ONOO− (mean ± sd),HUVECs T-786C variant T/T,1.22 (0.43)
same,Peak release ONOO− (mean ± sd),HUVECs T-786C variant T/T,335.82 (80.98) nmols/L
same,ONOO− production versus control,LA-419 5 μM (Table b2),decrease
same,% Change NO (mean ± sd),[3],16.93 (4.34) %
same,% Change NO/ONOO− (mean ± sd),[3],58.92 (16.01) %
same,% Change ONOO− (mean ± sd),[3],−25.30 (9.90) %
same,% Change NO (mean ± sd),HUVEC donor Race Not Reported,18.69 (5.53) %
same,% Change NO/ONOO− (mean ± sd),HUVEC donor Race Not Reported,75.55 (20.43) %
same,% Change ONOO− (mean ± sd),HUVEC donor Race Not Reported,−31.56 (5.34) %
same,% Change NO (mean ± sd),HUVEC donor alpha,12.82 (5.82) %
same,% Change NO/ONOO− (mean ± sd),HUVEC donor alpha,36.30 (14.59) %
same,% Change ONOO− (mean ± sd),HUVEC donor alpha,−16.43 (6.22) %
same,% Change NO (mean ± sd),HUVEC donor beta,14.30 (6.78) %
same,% Change NO/ONOO− (mean ± sd),HUVEC donor beta,39.65 (12.24) %
same,% Change ONOO− (mean ± sd),HUVEC donor beta,−17.84 (5.90) %
same,% Change NO (mean ± sd),HUVEC donor delta,13.97 (0) %
same,% Change NO/ONOO− (mean ± sd),HUVEC donor delta,57.83 (0) %
same,% Change ONOO− (mean ± sd),HUVEC donor delta,−27.79 (0) %
same,% Change NO (mean ± sd),HUVEC donor gamma,17.23 (7.65) %
same,% Change NO/ONOO− (mean ± sd),HUVEC donor gamma,57.79 (12.24) %
same,% Change ONOO− (mean ± sd),HUVEC donor gamma,−25.17 (5.79) %
same,% Change NO (mean ± sd),HUVECs G894T variant G/G,15.93 (6.37) %
same,% Change NO/ONOO− (mean ± sd),HUVECs G894T variant G/G,47.91 (17.67) %
same,% Change ONOO− (mean ± sd),HUVECs G894T variant G/G,−20.65 (7.38) %
same,% Change NO (mean ± sd),HUVECs G894T variant G/T,13.43 (6.31) %
same,% Change NO/ONOO− (mean ± sd),HUVECs G894T variant G/T,38.86 (13.20) %
same,% Change ONOO− (mean ± sd),HUVECs G894T variant G/T,−17.85 (6.26) %
same,% Change NO (mean ± sd),HUVECs G894T variant T/T,11.67 (6.86) %
same,% Change NO/ONOO− (mean ± sd),HUVECs G894T variant T/T,39.03 (13.43) %
same,% Change ONOO− (mean ± sd),HUVECs G894T variant T/T,−19.03 (8.40) %
same,% Change NO (mean ± sd),HUVECs Intron 4 variant a/a,13.60 (3.88) %
same,% Change NO/ONOO− (mean ± sd),HUVECs Intron 4 variant a/a,36.75 (3.58) %
same,% Change ONOO− (mean ± sd),HUVECs Intron 4 variant a/a,−16.60 (3.31) %
same,% Change NO (mean ± sd),HUVECs Intron 4 variant b/a,16.81 (6.88) %
same,% Change NO/ONOO− (mean ± sd),HUVECs Intron 4 variant b/a,45.81 (14.36) %
